Assay results reported in ChEMBL document CHEMBL6109130, “PaAP-Activatable NIR Probe for Diagnosing, Imaging, and Discovering Small-Molecule Therapeutics against Implant-Associated Biofilm Infections” (J Med Chem, 2025).
Each block holds one molecule with its values, some of them ahead of it. Calls of active or inactive are those of the source. No cut-off for these calls is given here.

How the values were obtained:
[1] = target: T1, Aminopeptidase (Pseudomonas aeruginosa) (UniProt Q9HZQ8); experiment: Inhibition of Pseudomonas aeruginosa aminopeptidase (PaAP) assessed as decrease in fluorescent intensity using fluorescent probe Hcy-NEO-Leu at 1 mM measured after 3 hrs
T1 sequence (whole entry): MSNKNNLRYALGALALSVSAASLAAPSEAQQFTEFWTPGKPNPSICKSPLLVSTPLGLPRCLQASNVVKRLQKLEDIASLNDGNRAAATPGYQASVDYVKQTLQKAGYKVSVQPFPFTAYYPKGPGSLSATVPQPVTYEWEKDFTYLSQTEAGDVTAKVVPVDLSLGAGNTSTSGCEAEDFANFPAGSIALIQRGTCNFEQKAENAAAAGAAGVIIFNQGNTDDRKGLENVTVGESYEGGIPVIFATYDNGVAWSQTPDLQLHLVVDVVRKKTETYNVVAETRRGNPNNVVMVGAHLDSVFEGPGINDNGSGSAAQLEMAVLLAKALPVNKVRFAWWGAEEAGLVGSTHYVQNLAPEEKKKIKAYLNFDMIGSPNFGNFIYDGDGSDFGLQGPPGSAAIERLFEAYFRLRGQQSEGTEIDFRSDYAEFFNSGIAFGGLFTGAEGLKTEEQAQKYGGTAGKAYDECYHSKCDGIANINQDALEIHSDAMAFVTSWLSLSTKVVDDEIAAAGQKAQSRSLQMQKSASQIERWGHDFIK

Aminopeptidase = target: T2, Aminopeptidase (Pseudomonas aeruginosa, UniProt Q9HZQ8); experiment: Inhibition of Pseudomonas aeruginosa aminopeptidase (PaAP) assessed as decrease in fluorescent intensity using fluorescent probe Hcy-NEO-Leu measured after 3 hrs
T2 sequence (Q9HZQ8 whole entry): T1 sequence (whole entry)

Enterococcus faecium = experiment: Antimicrobial activity against Enterococcus faecium ATCC29212 assessed as viability at 0.39 to 100 uM; type: functional, organism-based; settings: dose 0.39-100 µM
Staphylococcus aureus = experiment: Antimicrobial activity against Staphylococcus aureus ATCC25923 assessed as viability at 0.39 to 100 uM; type: functional, organism-based; settings: dose 0.39-100 µM
Klebsiella pneumoniae = experiment: Antimicrobial activity against Klebsiella pneumonia ATCC 700603 assessed as viability at 0.39 to 100 uM; type: functional, organism-based; settings: dose 0.39-100 µM
Acinetobacter baumannii = experiment: Antimicrobial activity against Acinetobacter baumannii ATCC19606 assessed as viability at 0.39 to 100 uM; type: functional, organism-based; settings: dose 0.39-100 µM
Pseudomonas aeruginosa [2] = experiment: Antimicrobial activity against Pseudomonas aeruginosa PAO1 assessed as viability at 0.39 to 100 uM; type: functional, organism-based; settings: dose 0.39-100 µM
HepG2 = experiment: Cytotoxicity against human HepG2 cells assessed as cell viability measured after 24 hrs by CCK-8 assay; type: functional, cell-based
A-375 = experiment: Cytotoxicity against human A-375 cells assessed as cell viability measured after 24 hrs by CCK-8 assay; type: functional, cell-based
BV-2 = experiment: Cytotoxicity against mouse BV-2 cells assessed as cell viability measured after 24 hrs by CCK-8 assay; type: functional, cell-based
HK-2 = experiment: Cytotoxicity against human HK2 cells assessed as cell viability measured after 24 hrs by CCK-8 assay; type: functional, cell-based
[3] = target: T1, Aminopeptidase (Pseudomonas aeruginosa); experiment: Inhibition of aminopeptidase (PaAP) in wild type Pseudomonas aeruginosa assessed as decrease in fluorescent intensity using fluorescent probe Hcy-NEO-Leu at 50 uM measured after 3 hrs
[4] = target: T1, Aminopeptidase (Pseudomonas aeruginosa); experiment: Inhibition of aminopeptidase (PaAP) in Pseudomonas aeruginosa delta(PaAP) assessed as decrease in fluorescent intensity using fluorescent probe Hcy-NEO-Leu at 50 uM measured after 3 hrs
Pseudomonas aeruginosa [5] = experiment: Reduction in aminopeptidase (PaAP) expression level in Pseudomonas aeruginosa PAO1 at 50 to 200 uM by ELISA relative to control; type: functional; settings: dose 50-200 µM
[6] = target: T1, Aminopeptidase (Pseudomonas aeruginosa); experiment: Inhibition of aminopeptidase (PaAP) in Pseudomonas aeruginosa PAO1 biofilm assessed as Hcy-NEO-Leu mediated fluorescence at 50 uM measured after 1 hr measured after 48 hrs by CLSM imaging based assay
Pseudomonas aeruginosa [7] = experiment: Anti-biofilm activity against Pseudomonas aeruginosa PAO1 on nail (implant surface) using Hcy-NEO-Leu probe at 50 uM by fluorescence imaging analysis; type: functional, organism-based
Pseudomonas aeruginosa [8] = experiment: Anti-biofilm activity against Pseudomonas aeruginosa PAO1 on surgical suture (implant surface) using Hcy-NEO-Leu probe at 50 uM by fluorescence imaging analysis; type: functional, organism-based
Pseudomonas aeruginosa [9] = experiment: Anti-biofilm activity against Pseudomonas aeruginosa PAO1 on catheter (implant surface) using Hcy-NEO-Leu probe at 50 uM by fluorescence imaging analysis; type: functional, organism-based
Pseudomonas aeruginosa [10] = experiment: Anti-biofilm activity against Pseudomonas aeruginosa PAO1 at 50 uM by crystal violet staining based optical microscopy relative to control; type: functional
Pseudomonas aeruginosa [11] = experiment: Induction of antibiotic susceptibility of Pseudomonas aeruginosa PAO1 assessed as reduction in tobramycin resistance by measuring bio-film fluorescence image at 50 uM incubated for 2 days followed by treated with tobramycin for 24 hrs by Calcein-AM/PI dual staining based Confocal microscopy; type: functional, organism-based; settings: time 3.0 day
Pseudomonas aeruginosa [12] = experiment: Anti-biofilm activity against Pseudomonas aeruginosa PAO1 biofilm exposed to RAW264.7 cells assessed as increase in bacterial uptake by macrophages at 50 uM measured after 12 hrs by LB plate assay; type: functional, organism-based
Pseudomonas aeruginosa [13] = experiment: Anti-biofilm activity against Pseudomonas aeruginosa PAO1 deltaPaAP biofilm exposed to RAW264.7 cells assessed as increase in bacterial uptake by macrophages at 50 uM measured after 12 hrs by LB plate assay; type: functional, organism-based
Pseudomonas aeruginosa [14] = experiment: In vivo anti-biofilm activity against pre colonized mature Pseudomonas aeruginosa PAO1 subcutaneously transplanted catheter in mouse model assessed as reduction in fluorescence signal using Hcy-NEO-Leu probe relative to control group; type: functional
Pseudomonas aeruginosa [15] = experiment: In vivo anti-biofilm activity against pre colonized mature Pseudomonas aeruginosa PAO1 subcutaneously transplanted catheter in mouse model assessed as reduction in bacterial CFU using Hcy-NEO-Leu probe; type: functional, organism-based
[16] = Cytotoxicity against human A-375 cells assessed as cell viability at 25 uM measured after 24 hrs by CCK-8 assay relative to control; type: toxicity, cell-based; settings: read-out: Activity
[17] = Cytotoxicity against human HepG2 cells assessed as cell viability at 25 uM measured after 24 hrs by CCK-8 assay relative to control; type: toxicity, cell-based; settings: read-out: Activity
[18] = Cytotoxicity against human HT-1080 cells assessed as cell viability at 25 uM measured after 24 hrs by CCK-8 assay relative to control; type: toxicity, cell-based; settings: read-out: Activity
[19] = Cytotoxicity against mouse BV-2 cells assessed as cell viability at 25 uM measured after 24 hrs by CCK-8 assay relative to control; type: toxicity, cell-based; settings: read-out: Activity
Pseudomonas aeruginosa [20] = experiment: Antimicrobial activity against Pseudomonas aeruginosa ATCC27853 assessed as viability at 50 uM; type: functional, organism-based
[21] = target: T1, Aminopeptidase (Pseudomonas aeruginosa); experiment: Inhibition of aminopeptidase (PaAP) in Pseudomonas aeruginosa PAO1 biofilm assessed as Hcy-NEO-Leu mediated fluorescence at 1 mM measured after 1 hr measured after 48 hrs by CLSM imaging based assay

inhibition [1]: Active
Structure (SMILES): O[C@H]1[C@H]2c3cc4c(cc3CN3CCC(=C[C@@H]1O)[C@H]23)OCO4

IC50 (Aminopeptidase): 39.2 µM
Structure (SMILES): O=C(O)CCNC(=O)c1ccc(/N=N/c2ccc(O)c(C(=O)O)c2)cc1 [BALSALAZIDE]

Structure (SMILES): O[C@H]1[C@H]2c3cc4c(cc3CN3CCC(=C[C@@H]1OC(=S)Nc1ccccc1)[C@H]23)OCO4
inhibition [1]: Active
IC50 (Aminopeptidase): 36.8 µM
Activity (Enterococcus faecium): inactive
Activity (Staphylococcus aureus): inactive
Activity (Klebsiella pneumoniae): inactive
Activity (Acinetobacter baumannii): inactive
Activity (Pseudomonas aeruginosa [2]): inactive
Activity (HepG2): inactive
Activity (A-375): inactive
Activity (BV-2): inactive
Activity (HK-2): inactive
inhibition [3]: Active
inhibition [4]: inactive
Activity (Pseudomonas aeruginosa [5]): Active
inhibition [6]: Active
Activity (Pseudomonas aeruginosa [7]): Active
Activity (Pseudomonas aeruginosa [8]): Active
Activity (Pseudomonas aeruginosa [9]): Active
Activity (Pseudomonas aeruginosa [10]): <50%
Activity (Pseudomonas aeruginosa [11]): Active
Activity (Pseudomonas aeruginosa [12]): Active
Activity (Pseudomonas aeruginosa [13]): Active
fold change (FC) (Pseudomonas aeruginosa [14]): 2.65
Activity (Pseudomonas aeruginosa [15]): Active

inhibition [1]: Active
Structure (SMILES): O=C(COc1ccccc1)O[C@@H]1C(=O)C=C2CCN3Cc4cc5c(cc4[C@H]1[C@@H]23)OCO5

inhibition [1]: Active
Structure (SMILES): O=C(Nc1ccc(Cl)cc1)O[C@H]1[C@H]2c3cc4c(cc3CN3CCC(=C[C@@H]1O)[C@H]23)OCO4

inhibition [1]: Active
Structure (SMILES): O=C(CSc1ccc(F)cc1)O[C@@H]1C(=O)C=C2CCN3Cc4cc5c(cc4[C@H]1[C@@H]23)OCO5

Structure (SMILES): CC1(C)C(/C=C/C2=C3Oc4cc(O)ccc4C=C3CCC2)=[N+](CCCCCC(=O)NC[C@H]2O[C@@H](O[C@@H]3[C@@H](O)[C@H](N)C[C@H](N)[C@H]3O[C@H]3O[C@H](CN)[C@@H](O)[C@H](O)[C@H]3N)[C@H](O)[C@@H]2O[C@H]2O[C@@H](CN)[C@@H](O)[C@H](O)[C@H]2N)c2ccccc21
viability at 24 h, 25 µM [16]: > 80%
viability at 24 h, 25 µM [17]: > 80%
viability at 24 h, 25 µM [18]: > 80%
viability at 24 h, 25 µM [19]: > 80%
Activity (Pseudomonas aeruginosa [20]): inactive

inhibition [1]: Active
Structure (SMILES): O=C(NC1CCCCC1)O[C@H]1[C@H]2c3cc4c(cc3CN3CCC(=C[C@@H]1O)[C@H]23)OCO4

IC50 (Aminopeptidase): 521 µM
inhibition [21]: 100%
Structure (SMILES): CC(C)C[C@H](NC(=O)[C@@H](O)[C@H](N)Cc1ccccc1)C(=O)O [UBENIMEX]

inhibition [1]: Active
Structure (SMILES): S=C1O[C@H]2[C@H]3c4cc5c(cc4CN4CCC(=C[C@H]2N1c1cccnc1)[C@H]34)OCO5

inhibition [1]: Active
Structure (SMILES): CC(C)(C)[Si](C)(C)OC1CCC(N2C(=S)O[C@H]3[C@H]4c5cc6c(cc5CN5CCC(=C[C@H]32)[C@H]45)OCO6)CC1 (some centres not stated)

Structure (SMILES): O=C(O[C@H]1[C@H]2c3cc4c(cc3CN3CCC(=C[C@@H]1O)[C@H]23)OCO4)C1CCCCC1
inhibition [1]: Active

inhibition [1]: Active
Structure (SMILES): O=C1O[C@H]2[C@H]3c4cc5c(cc4CN4CCC(=C[C@H]2N1c1ccc(Cl)cc1)[C@H]34)OCO5

Structure (SMILES): CC(C)C[C@H](N)C(=O)Nc1ccc(COc2ccc3c(c2)OC2=C(/C=C/C4=[N+](CCCCCC(=O)NC[C@H]5O[C@@H](O[C@@H]6[C@@H](O)[C@H](N)C[C@H](N)[C@H]6O[C@H]6O[C@H](CN)[C@@H](O)[C@H](O)[C@H]6N)[C@H](O)[C@@H]5O[C@H]5O[C@@H](CN)[C@@H](O)[C@H](O)[C@H]5N)c5ccccc5C4(C)C)CCCC2=C3)cc1
viability at 24 h, 25 µM [16]: > 80%
viability at 24 h, 25 µM [17]: > 80%
viability at 24 h, 25 µM [18]: > 80%
viability at 24 h, 25 µM [19]: > 80%
Activity (Pseudomonas aeruginosa [20]): inactive

inhibition [1]: Active
Structure (SMILES): O=C1C=C2CCN3Cc4cc5c(cc4[C@H]([C@@H]1O)[C@@H]23)OCO5
